Test results as given in patent US10760052B2, “Method of inhibiting tau phosphorylation” (priority 2012, dated 2020).

Target: T1, mu opiate receptor (MOR) (Rattus norvegicus, UniProt P33535)
T1 construct: from tissue; host or cells: striatum (membrane preparation)
Assay type: biochemical
Conditions: for Concentration of FLNA-Binding Compound as Agonist 0.1 μM / Concentration of FLNA-Binding Compound as Agonist 1 μM / Concentration of FLNA-Binding Compound as Agonist 1 μM + BFNA: [35S]GTPγS binding to Gαo in striatal membranes; for Concentration of FLNA-Binding Compound as Agonist 0.1 μM: compound 0.1 μM; for Concentration of FLNA-Binding Compound as Agonist 1 μM: compound 1 μM; for Concentration of FLNA-Binding Compound as Agonist 1 μM + BFNA: compound 1 μM plus 1 μM β-funaltrexamine (MOR antagonist); for [35S]GTPγS binding, FLNA-Binding Compound as Agonist at 0.1 μM: 0.1 μM compound; for [35S]GTPγS binding, FLNA-Binding Compound as Agonist at 0.1 μM / [35S]GTPγS binding, FLNA-Binding Compound as Agonist at 1 μM: striatal membranes; for [35S]GTPγS binding, FLNA-Binding Compound as Agonist at 0.1 μM / [35S]GTPγS binding, FLNA-Binding Compound as Agonist at 1 μM + BFNA / [35S]GTPγS binding, FLNA-Binding Compound as Agonist at 1 μM: Series C-2; for [35S]GTPγS binding, FLNA-Binding Compound as Agonist at 1 μM + BFNA: 1 μM compound + 1 μM β-FNA (selective MOR antagonist); for [35S]GTPγS binding, FLNA-Binding Compound as Agonist at 1 μM: 1 μM compound

T1 sequence (P33535 whole entry): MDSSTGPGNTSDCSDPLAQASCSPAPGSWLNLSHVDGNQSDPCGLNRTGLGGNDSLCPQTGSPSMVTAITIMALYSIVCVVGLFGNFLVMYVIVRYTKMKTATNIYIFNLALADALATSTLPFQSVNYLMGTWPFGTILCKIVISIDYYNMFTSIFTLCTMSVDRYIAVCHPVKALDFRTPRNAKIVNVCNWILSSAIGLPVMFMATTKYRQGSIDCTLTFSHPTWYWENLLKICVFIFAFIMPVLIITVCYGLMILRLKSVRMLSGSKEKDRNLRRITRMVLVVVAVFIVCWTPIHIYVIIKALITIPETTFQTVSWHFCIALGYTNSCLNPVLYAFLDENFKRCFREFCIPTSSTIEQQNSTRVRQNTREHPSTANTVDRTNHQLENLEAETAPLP

| Compound | % DAMGO (0.1 μM) | % DAMGO (1 μM) | % DAMGO + BFNA | Concentration of FLNA-Binding Compound as Agonist 0.1 μM | Concentration of FLNA-Binding Compound as Agonist 1 μM | Concentration of FLNA-Binding Compound as Agonist 1 μM + BFNA | [35S]GTPγS binding, FLNA-Binding Compound as Agonist at 0.1 μM | [35S]GTPγS binding, FLNA-Binding Compound as Agonist at 1 μM + BFNA | [35S]GTPγS binding, FLNA-Binding Compound as Agonist at 1 μM |
| --- | --- | --- | --- | --- | --- | --- | --- | --- | --- |
| COc1c2c(cc3c1C(CC(=O)c1ccc(C#N)cc1)[N+](C)(C)CC3)OCO2 (stereo not drawn) [Compound B0001] | 77.4% | 74.9% | 43.1% | 128.2% | 202.3% | 28.0% |  |  |  |
| C=CCN1CCC2(CC1)OCCN2S(=O)(=O)c1ccc(C(C)=O)cc1 [Compound C0096M] | 105.9% | 130.0% | 577.7% |  |  |  | 186.4% | 127.1% | 328.9% |
| O=S(=O)(c1ccc(F)c(F)c1)N1CCC2(CC1)OCCN2S(=O)(=O)c1ccc(F)c(F)c1 [Compound C0072] | 100.3% | 117.9% | 194.5% | 172.7% | 259.1% | 67.1% |  |  |  |
| CC1CN(CC(O)COc2cccc(N(C)C)c2)CC(C)O1 (stereo not drawn) [Compound A0042] | 75.2% | 84.5% | 121.1% | 147.5% | 233.1% | 89.5% |  |  |  |
| O=[N+]([O-])c1ccc(S(=O)(=O)N2CCC3(CC2)NCCO3)cc1 [Compound C0040] | 93.1% | 133.2% | 277.3% |  |  |  | 145.8% | 90.4% | 308.3% |
| COc1ccccc1S(=O)(=O)N1CCC2(CC1)OCCN2S(=O)(=O)c1ccccc1OC [Compound C0003] | 91.9% | 83.3% | 163.9% | 162.3% | 215.9% | 107.7% |  |  |  |
| O=S(=O)(c1ccc(OC(F)(F)F)cc1)N1CCC2(CC1)OCCN2S(=O)(=O)c1ccc(OC(F)(F)F)cc1 [Compound C0006] | 70.6% | 73.8% | 7.2% | 121.5% | 204.0% | 4.6% |  |  |  |
| COc1ccc(OCC(O)Cn2ccc3ccccc32)cc1 (stereo not drawn) [Compound A0077] | 170.5% | 132.3% | 470.5% | 300.1% | 334.7% | 103.5% |  |  |  |
| COc1ccc(S(=O)(=O)N2CCC3(CC2)NCCC(=O)N3)cc1 [Compound C0142M] | 97.8% | 95.2% | 251.1% |  |  |  | 143.7% | 98.7% | 192.5% |
| CS(=O)(=O)c1ccc(S(=O)(=O)N2CCC3(CC2)OCCN3S(=O)(=O)c2ccc(S(C)(=O)=O)cc2)cc1 [Compound C0009] | 85.1% | 92.6% | 41.2% | 146.3% | 256.2% | 26.4% |  |  |  |
| O=C1CN(Cc2ccccc2)C2(CCN(CC3CC3)CC2)N1 [Compound C0125M] | 89.1% | 78.6% | 329.3% |  |  |  | 168.6% | 159.7% | 195.2% |
| COc1c2c(cc3c1C(CC(=O)/C=C/c1ccc(Cl)cc1)[N+](C)(C)CC3)OCO2 (stereo not drawn) [Compound B0019] | 59.7% | 96.0% | 123.3% | 101.0% | 256.5% | 81.4% |  |  |  |
| O=S(=O)(c1csc2ccccc12)N1CCC2(CC1)OCCN2S(=O)(=O)c1csc2ccccc12 [Compound C0150M] | 97.2% | 129.8% | 173.2% | 167.1% | 423.1% | 93.4% |  |  |  |
| COc1ccc(OCC(O)CN2CCOc3ccccc32)cc1 (stereo not drawn) [Compound A0076] | 46.4% | 78.6% | 119.4% | 79.8% | 172.6% | 41.2% |  |  |  |
| CC1CN(CC(O)COc2ccc(Br)c(F)c2)CC(C)O1 (stereo not drawn) [Compound A0041] | 108.4% | 102.8% | 68.5% | 212.7% | 283.6% | 50.6% |  |  |  |
| CCCCc1ccc(S(=O)(=O)N2CCC3(CC2)OCCN3S(=O)(=O)c2ccc(CCCC)cc2)cc1 [Compound C0030] | 96.0% | 98.0% | 291.4% | 150.3% | 226.8% | 95.0% |  |  |  |
| COc1c2c(cc3c1C(CC(=O)Cc1ccccc1F)[N+](C)(C)CC3)OCO2 (stereo not drawn) [Compound B0055] | 91.8% | 133.1% | 446.8% | 162.1% | 338.5% | 117.5% |  |  |  |
| CC1CCC(C(C)C)C(OCC(O)CN2CCCCC2=O)C1 (stereo not drawn) [Compound A0036] | 73.4% | 60.7% | 85.5% | 144.1% | 167.5% | 63.2% |  |  |  |
| Cc1cccc(OCC(O)CN2CC(C)OC(C)C2)c1 (stereo not drawn) [Compound A0030] | 75.5% | 113.2% | 628.1% | 133.4% | 287.8% | 165.2% |  |  |  |
| COc1ccc(C(=O)N2CCC3(CC2)OCCN3C(=O)c2ccc(OC)cc2)cc1 [Compound C0017] | 87.1% | 109.7% | 143.2% | 153.8% | 284.5% | 94.1% |  |  |  |
| COc1ccc(S(=O)(=O)N2CCC3(NCCO3)C3CCCCC32)cc1 (stereo not drawn) [Compound C0144M-2] | 108.3% | 90.8% | 137.9% |  |  |  | 186.3% | 125.9% | 295.9% |
| COc1ccc(CCC(=O)CC2c3c(cc4c(c3OC)OCO4)CCN2C)cc1 (stereo not drawn) [Compound B0047] | 106.3% | 92.6% | 260.1% | 187.8% | 235.6% | 68.4% |  |  |  |
